Measurements taken from US9163018B2, “Method of treatment of age-related macular degeneration (AMD)” (Prana Biotechnology Limited, priority 2006, dated 2015).

What was measured:
[1] = molecular target: T1, Abeta:Zn (25:50 μM) Synthetic Aggregations (Homo sapiens, UniProt P05067); assay: Disaggregation of Abeta:Zn synthetic aggregates (ThT fluorescence); assay type: biochemical; settings: for Disaggregation % Aggregate reduction at 5 μM: 5 μM test compound; for EC50: Abeta:Zn 25:50 μM aggregates
T1 construct: PB Compound Mediated Dissolution of Aggregated Abeta 1-42; purchased Keck Laboratory, Yale University School of Medicine
Outline: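 Abeta1-42 (25 μM) with ZnCl2 (50 μM) and ThT (50 μM) in PBS pH 6.6 was preaggregated 24 h at 37 degrees with rotation. Aggregates were then exposed to compound (final 1-50 μM, DMSO) for 2 h at 37 degrees. ThT fluorescence was read at ex 450/em 480 nm.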

[2] = test system: dityrosine oligomerization; assay: CuTy: inhibition of dityrosine oligomerization; assay type: biochemical; settings: referenced to in-house standard (set as 100% inhibition)
[3] = Toxicity, visual observations in mice; settings: duration and visual observations
[4] = test system: M17 human neuroblastoma cells; assay: Cytotoxicity, M17 human neuroblastoma cells; assay type: cell-based; settings: for Cytotox (% viable) M17 cells at 1 μM: 1 μM test compound; for Cytotox (% viable) M17 cells at 10 μM: 10 μM test compound
Experimental: Assay 3. MTS Assay for Cell Viability
Cell viability is determined using the MTS assay. Culture medium is replaced with fresh neurobasal medium plus B27 supplements minus antioxidants. 1/10th volume MTS solution (Cell Titre 96 Aqueous One, Promega Corporation) and incubated at 37° C., 2 hrs. 200 microliter aliquots are measured with a spectrophotometer at 560 nm.

[5] = test system: primary cortical neuronal cultured cells; assay: Test compound cytotoxicity, MTS assay, primary cortical neuronal cultures; assay type: cell-based, mouse; settings: for Cytotox (% viable) Neuronal cells at 1 μM: 1 μM test compound; for Cytotox (% viable) Neuronal cells at 10 μM: 10 μM test compound
Outline: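 Primary cortical neurons were cultured five days in Neurobasal/B27, then exposed on day six to compounds (from 2.5 mM DMSO stocks) in medium minus antioxidants, in triplicate for 4 days at 37° C. Viability was measured by MTS, 2 h at 37° C, absorbance at 560 nm.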

[6] = Mice plasma concentration after oral dose; assay type: in vivo; settings: for Mice plasma concentration: 30 min to 4 h after single or repeat oral dose of 30 mg/kg; for Mice plasma concentration at 10 mg/kg: oral dose 10 mg/kg
[7] = molecular target: T2, Aβ 1-42 (Homo sapiens, UniProt P05067); assay: Fluorometric H2O2 assay (inhibition of Abeta H2O2 production); assay type: biochemical; settings: concentration required to inhibit 50% of Abeta H2O2 production; read-out: H2O2 IC50
T2 construct: The reaction solutions contained Aβ 1-42 at concentrations
Outline: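 Copper-dependent Aβ H2O2 production measured fluorometrically with deacetylated dichlorofluorescein plus HRP in PBS, pH 7.4. Incubation 60 min at 37 C, test compound included in wells. H2O2 quantified against H2O2 standards.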

[8] = test system: Aβ deposits; settings: 9 weeks; for Tg Mice % difference from control in Amyloid plaque abundance / Tg Mice % difference from control in insoluble brain amyloid burden / Tg Mice % difference from control in soluble brain amyloid burden: daily oral gavage 30 mg/kg, 13-14 months old transgenic mice
[9] = test system: Abeta in extract of post-mortem human AD brain tissue; assay: BAS: human brain amyloid solubilization assay; assay type: biochemical; settings: max effect across the concentration range, referenced to baseline PBS
Outline: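 Plaque-bearing post-mortem AD cortex homogenised in ice-cold PBS pH 7.4; soluble Aβ in 100,000×g supernatant, insoluble Aβ from resuspended pellet. Fractions run on Tris-Tricine SDS-PAGE, immunoblotted with W02, densitometry against synthetic Aβ40 standards.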

T1 sequence (P05067 672-713 limits assumed): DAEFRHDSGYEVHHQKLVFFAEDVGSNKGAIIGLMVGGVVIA
T2 sequence (P05067 672-713 limits assumed): as above

Compound	Disaggregation % Aggregate reduction at 5 μM [1] [%]	CuTy % inhibition of dityrosine oligomerization [2]	Toxicity at 30 mg/kg [3]	Cytotox (% viable) M17 cells at 1 μM [4] [%]	Cytotox (% viable) M17 cells at 10 μM [4] [%]	Cytotox (% viable) Neuronal cells at 1 μM [5] [%]	Cytotox (% viable) Neuronal cells at 10 μM [5] [%]	Mice plasma concentration [6]	EC50 [1] [nM]	Toxicity at 10 mg/kg [3]	IC50 [7] [nM]	Mice plasma concentration at 10 mg/kg [6]	Tg Mice Amyloid plaque abundance at 3 mg/kg ([8]; daily oral gavage 3 mg/kg)	Tg Mice soluble brain amyloid burden at 3 mg/kg ([8]; daily oral gavage 3 mg/kg)	Tg Mice % difference in insoluble brain amyloid burden at 3 mg/kg ([8]; daily oral gavage 3 mg/kg, ex-outlier) [%]	BAS max effect [9] [%]	Tg Mice % difference from control in Amyloid plaque abundance [8]	Tg Mice % difference from control in insoluble brain amyloid burden [8]	Tg Mice % difference from control in soluble brain amyloid burden [8]
O=c1c2c(Cl)cc(Cl)c(O)c2ncn1Nc1ccc(F)cc1F [PB-1100]	42	CuTy: 10% inhibition	10 days, none	108.1	80.5	100	92	Up to 1,130.6 ng/mL	–	–	–	–	–	–	–	–	–	–	–
CC(C)Cn1cnc2c(O)c(I)ccc2c1=O [PB 1152]	56	–	–	95.7	71.2	–	–	–	> 20000	At 10 mg/kg 10 days, none	310	At 10 mg/kg: Up to 309 ng/ml ng/mL	–	–	–	–	–	–	–
CCCc1cnc2c(O)c(I)ccn2c1=O [PB 1151]	57	–	–	80.8	47.6	–	–	Up to 11742 ng/ ml ng/mL	5600	–	330	–	No change	No change	−24	–	–	–	–
Br.CCN(CC)Cc1nc2c(O)c(Cl)cc(Cl)c2c(=O)[nH]1 [PB 1128]	41	CuTy: 100% inhibition	10 days, none	106.5	99.1	100.6	93.7	Up to 2289 ng/ mL ng/mL	–	–	–	–	–	–	–	–	–	–	–
CC(C)Cn1c(CN(C)C)nc2c(O)c(Cl)cc(Cl)c2c1=O.Cl [PB 1271]	–	CuTy: 50% inhibition	–	104.4	61.5	–	–	–	–	–	170	–	–	–	–	–	–	–	–
O=c1c2c(Cl)cc(I)c(O)c2ncn1CC1CC1 [PB 1140]	64	–	–	92.4	98.2	–	–	–	3500	At 10 mg/kg 10 days, none	360	At 10 mg/kg: Up to 2315 ng/ ml ng/mL	–	–	–	–	–	–	–
CCC(C)n1cnc2c(O)c(Cl)cc(Cl)c2c1=O (stereo not shown) [PB 1112]	46.4	CuTy: 125% inhibition	10 days, none	99.2	68.6	94	67	Up to 2949 ng/ mL ng/mL	> 20000	–	–	–	–	–	–	–	–	–	–
Oc1c(Cl)cc(Cl)c2ccc(-c3ccccn3)nc12 [PB 1052]	62.8	–	–	–	–	55	31	–	3300	–	640	–	–	–	–	212	Decrease insol, Decrease sol, Decrease plaque	Decrease insol, Decrease sol, Decrease plaque	Decrease insol, Decrease sol, Decrease plaque
O=c1c2c(Cl)cc(Cl)c(O)c2ncn1CCN1CCCC1 [PB 1075]	0	–	14 days, 1 of 4 death	103.6	101.3	104	91	Up to 520 ng/ mL in mice ng/mL	> 20000	–	–	–	–	–	–	–	−23%	Increase	decrease
CCCn1cnc2c(O)c(I)ccc2c1=S [PB 1165]	52	–	10 days, none	96.7	107.1	–	–	Up tp 1593 ng/ ml ng/mL	4700	–	890	–	–	–	–	–	Decrease	No change	No change
